Laboratory results reported in patent US8575201B2 (Boehringer Ingelheim International GmbH, priority 2010, dated 2013).

Experiments:
[1] = molecular target: recombinant human FLAP protein (Homo sapiens (Human), UniProt P20292); assay: FLAP binding assay (Scintillation Proximity Assay, displacement of [125I]L-691,831); settings: read-out: FLAP SPA IC50
How it was run: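 Scintillation proximity displacement of an iodinated (125I) FLAP inhibitor by test compounds, using 100,000×g membrane fraction from lysed cells. Final beads 200 μg/well and protein 5 μg/well; plates shaken 2 h before reading.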

[2] = tested on: synthesis of LTB4 in human whole blood; assay: Human whole blood LTB4 production inhibition assay; format: cell-based; settings: calcimycin stimulated, read-out: hWB LTB4 IC50
How it was run: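 Heparinized human whole blood preincubated with compound 15 min at 37 °C, then stimulated with calcimycin (20 μM final) for 30 min at 37 °C. Plasma LTB4 measured after low-speed centrifugation by antibody-based homogeneous time-resolved fluorescence.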

Sequence of recombinant human FLAP protein (P20292 whole entry): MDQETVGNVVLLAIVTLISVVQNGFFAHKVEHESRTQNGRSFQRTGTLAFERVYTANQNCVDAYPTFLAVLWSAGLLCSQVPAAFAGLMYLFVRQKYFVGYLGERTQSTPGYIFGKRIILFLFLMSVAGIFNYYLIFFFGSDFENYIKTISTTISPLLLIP

Row | Compound | IC50 [1] | IC50 [2]
1 | Cn1cc(-c2nc(C3(c4ccc(-c5cnc(N)nc5)nc4)CCC3)no2)cn1 [Example 102, 5-(5-{1-[5-(1-methyl-1H-pyrazol-4-yl)-1,2,4-oxadiazol-3-yl]cyclobutyl}pyridin-2-yl)pyrimidin-2-amine] | 13 nM | 270 nM
2 | Cc1n[nH]c(C)c1-c1nc(C2(c3ccc(-c4cnc(N)nc4)nc3)CCC2)no1 [Example 103, 5-(5-{1-[5-(3,5-dimethyl-1H-pyrazol-4-yl)-1,2,4-oxadiazol-3-yl]cyclobutyl}pyridin-2-yl)pyrimidin-2-amine] | 14 nM | 1000 nM
3 | Nc1ncc(-c2ccc(C3(c4noc(-c5ccnnc5)n4)CCC3)cn2)cn1 [Example 104, 5-(5-{1-[5-(pyridazin-4-yl)-1,2,4-oxadiazol-3-yl]cyclobutyl}pyridin-2-yl)pyrimidin-2-amine] | 110 nM | 2100 nM
4 | Nc1ncc(-c2ccc(C3(c4noc(-c5cccnc5N)n4)CCC3)cn2)cn1 [Example 105, 5-(5-{1-[5-(2-aminopyridin-3-yl)-1,2,4-oxadiazol-3-yl]cyclobutyl}pyridin-2-yl)pyrimidin-2-amine] | 17 nM | 570 nM
5 | Nc1ncc(-c2ccc(C3(c4noc(-c5cnccc5N)n4)CCC3)cn2)cn1 [Example 106, 5-(5-{1-[5-(4-aminopyridin-3-yl)-1,2,4-oxadiazol-3-yl]cyclobutyl}pyridin-2-yl)pyrimidin-2-amine] | 31 nM | 840 nM
6 | Nc1ncc(-c2ccc(C3(c4noc(-c5cnccc5O)n4)CCC3)cn2)cn1 [Example 107, 3-(3-{1-[6-(2-aminopyrimidin-5-yl)pyridin-3-yl]cyclobutyl}-1,2,4-oxadiazol-5-yl)pyridin-4-ol] | 190 nM | 4000 nM
7 | Nc1ncc(-c2ccc(C3(c4noc(-c5ccc(=O)[nH]c5)n4)CCC3)cn2)cn1 [Example 108, 5-(3-{1-[6-(2-aminopyrimidin-5-yl)pyridin-3-yl]cyclobutyl}-1,2,4-oxadiazol-5-yl)pyridin-2(1H)-one] | 48 nM | 720 nM
8 | Nc1ncc(-c2ccc(C3(c4noc(-c5cccnc5C(F)(F)F)n4)CCC3)cn2)cn1 [Example 109, 5-[5-(1-{5-[2-(trifluoromethyl)pyridin-3-yl]-1,2,4-oxadiazol-3-yl}cyclobutyl)pyridin-2-yl]pyrimidin-2-amine] | 14 nM | 1500 nM
9 | CN(C)c1ccc(-c2nc(C3(c4ccc(-c5cnc(N)nc5)nc4)CCC3)no2)cn1 [Example 110, 5-[5-(1-{5-[6-(dimethylamino)pyridin-3-yl]-1,2,4-oxadiazol-3-yl}cyclobutyl)pyridin-2-yl]pyrimidin-2-amine] | 2.4 nM | 310 nM
10 | Nc1ccc(-c2nc(C3(c4ccc(-c5cnc(N)nc5)nc4)CCC3)no2)cn1 [Example 111, 5-(5-{1-[5-(6-aminopyridin-3-yl)-1,2,4-oxadiazol-3-yl]cyclobutyl}pyridin-2-yl)pyrimidin-2-amine] | 4.2 nM | 74 nM
11 | Nc1ncc(-c2ccc(C3(c4noc(-c5ccc(N6CCCC6)nc5)n4)CCC3)cn2)cn1 [Example 112, 5-[5-(1-{5-[6-(pyrrolidin-1-yl)pyridin-3-yl]-1,2,4-oxadiazol-3-yl}cyclobutyl)pyridin-2-yl]pyrimidin-2-amine] | 3.3 nM | 570 nM
12 | CNc1ccc(-c2nc(C3(c4ccc(-c5cnc(N)nc5)nc4)CCC3)no2)cn1 [Example 113, 5-[5-(1-{5-[6-(methylamino)pyridin-3-yl]-1,2,4-oxadiazol-3-yl}cyclobutyl)pyridin-2-yl]pyrimidin-2-amine] | 2.4 nM | 100 nM
13 | CC(C)Nc1ccc(-c2nc(C3(c4ccc(-c5cnc(N)nc5)nc4)CCC3)no2)cn1 [Example 114, 5-[5-(1-{5-[6-(propan-2-ylamino)pyridin-3-yl]-1,2,4-oxadiazol-3-yl}cyclobutyl)pyridin-2-yl]pyrimidin-2-amine] | 1.5 nM | 280 nM
14 | Nc1ncc(-c2ccc(C3(c4noc(-c5ccc(NCCO)nc5)n4)CCC3)cn2)cn1 [Example 115, 2-{[5-(3-{1-[6-(2-aminopyrimidin-5-yl)pyridin-3-yl]cyclobutyl}-1,2,4-oxadiazol-5-yl)pyridin-2-yl]amino}ethanol] | 1.9 nM | 49 nM
15 | CN(CCO)c1ccc(-c2nc(C3(c4ccc(-c5cnc(N)nc5)nc4)CCC3)no2)cn1 [Example 116, 2-{[5-(3-{1-[6-(2-aminopyrimidin-5-yl)pyridin-3-yl]cyclobutyl}-1,2,4-oxadiazol-5-yl)pyridin-2-yl](methyl)amino}ethanol] | 4.3 nM | 140 nM
16 | COCCN(C)c1ccc(-c2nc(C3(c4ccc(-c5cnc(N)nc5)nc4)CCC3)no2)cn1 [Example 117, 5-{5-[1-(5-{6-[(2-methoxyethyl)(methyl)amino]pyridin-3-yl}-1,2,4-oxadiazol-3-yl)cyclobutyl]pyridin-2-yl}pyrimidin-2-amine] | 3 nM | 120 nM

Row | Compound | IC50 [1] | IC50 [2]
17 | COCCNc1ccc(-c2nc(C3(c4ccc(-c5cnc(N)nc5)nc4)CCC3)no2)cn1 [Example 118, 5-{5-[1-(5-{6-[(2-methoxyethyl)amino]pyridin-3-yl}-1,2,4-oxadiazol-3-yl)cyclobutyl]pyridin-2-yl}pyrimidin-2-amine] | 2.8 nM | 84 nM
18 | CS(=O)(=O)c1ccc(-c2nc(C3(c4ccc(-c5cnc(N)nc5)nc4)CCC3)no2)cn1 [Example 119, 5-[5-(1-{5-[6-(methylsulfonyl)pyridin-3-yl]-1,2,4-oxadiazol-3-yl}-cyclobutyl)pyridin-2-yl]pyrimidin-2-amine] | 62 nM | 230 nM
19 | Nc1ncc(-c2ccc(C3(c4noc(-c5nc[nH]n5)n4)CCC3)cn2)cn1 [Example 120, 5-(5-{1-[5-(1H-1,2,4-triazol-3-yl)-1,2,4-oxadiazol-3-yl]cyclobutyl}pyridin-2-yl)pyrimidin-2-amine] | 200 nM | > 5000 nM
20 | Cc1cc(-c2nc(C3(c4ccc(-c5cnc(N)nc5)nc4)CCC3)no2)n(C)n1 [Example 121, 5-(5-{1-[5-(1,3-dimethyl-1H-pyrazol-5-yl)-1,2,4-oxadiazol-3-yl]cyclobutyl}pyridin-2-yl)pyrimidin-2-amine] | 28 nM | 1800 nM
21 | CNc1ncccc1-c1nc(C2(c3ccc(-c4cnc(N)nc4)nc3)CCC2)no1 [Example 122, 5-[5-(1-{5-[2-(methylamino)pyridin-3-yl]-1,2,4-oxadiazol-3-yl}cyclobutyl)pyridin-2-yl]pyrimidin-2-amine] | 28 nM | 3800 nM
22 | Nc1ncc(-c2ccc(C3(c4noc(-c5cncs5)n4)CCC3)cn2)cn1 [Example 123, 5-(5-{1-[5-(1,3-thiazol-5-yl)-1,2,4-oxadiazol-3-yl]cyclobutyl}pyridin-2-yl)pyrimidin-2-amine] | 31 nM | 790 nM
23 | Cn1nccc1-c1nc(C2(c3ccc(-c4cnc(N)nc4)nc3)CCC2)no1 [Example 124, 5-(5-{1-[5-(1-methyl-1H-pyrazol-5-yl)-1,2,4-oxadiazol-3-yl]cyclobutyl}pyridin-2-yl)pyrimidin-2-amine] | 11 nM | 210 nM
24 | Nc1ncc(-c2ccc(C3(c4noc(-c5ccc(N6CCNC(=O)C6)nc5)n4)CCC3)cn2)cn1 [Example 125, 4-[5-(3-{1-[6-(2-aminopyrimidin-5-yl)pyridin-3-yl]cyclobutyl}-1,2,4-oxadiazol-5-yl)pyridin-2-yl]piperazin-2-one] | 1.8 nM | 160 nM
25 | CN(C)c1ncccc1-c1nc(C2(c3ccc(-c4cnc(N)nc4)nc3)CCC2)no1 [Example 126, 5-[5-(1-{5-[2-(dimethylamino)pyridin-3-yl]-1,2,4-oxadiazol-3-yl}cyclobutyl)pyridin-2-yl]pyrimidin-2-amine] | 34 nM | > 5000 nM
26 | Cn1ccc(-c2nc(C3(c4ccc(-c5cnc(N)nc5)nc4)CCC3)no2)n1 [Example 127, 5-(5-{1-[5-(1-methyl-1H-pyrazol-3-yl)-1,2,4-oxadiazol-3-yl]cyclobutyl}pyridin-2-yl)pyrimidin-2-amine] | 40 nM | 640 nM
27 | Nc1ncc(-c2ccc(C3(c4noc(-c5cccnc5N5CCOCC5)n4)CCC3)cn2)cn1 [Example 128, 5-[5-(1-{5-[2-(morpholin-4-yl)pyridin-3-yl]-1,2,4-oxadiazol-3-yl}cyclobutyl)pyridin-2-yl]pyrimidin-2-amine] | 66 nM | 2700 nM
28 | Nc1ncc(-c2ccc(C3(c4noc(-c5cnccn5)n4)CCC3)cn2)cn1 [Example 129, 5-(5-{1-[5-(pyrazin-2-yl)-1,2,4-oxadiazol-3-yl]cyclobutyl}pyridin-2-yl)pyrimidin-2-amine] | 47 nM | 630 nM
29 | Cc1cnc(-c2nc(C3(c4ccc(-c5cnc(N)nc5)nc4)CCC3)no2)cn1 [Example 130, 5-(5-{1-[5-(5-methylpyrazin-2-yl)-1,2,4-oxadiazol-3-yl]cyclobutyl}pyridin-2-yl)pyrimidin-2-amine] | 26 nM | 350 nM
30 | Cn1cnc(-c2nc(C3(c4ccc(-c5cnc(N)nc5)nc4)CCC3)no2)c1 [Example 131, 5-(5-{1-[5-(1-methyl-1H-imidazol-4-yl)-1,2,4-oxadiazol-3-yl]cyclobutyl}pyridin-2-yl)pyrimidin-2-amine] | 52 nM | 300 nM
31 | Nc1ncc(-c2ccc(C3(c4noc(-c5cn[nH]c5)n4)CCC3)nc2)cn1 [Example 132, 5-(6-{1-[5-(1H-pyrazol-4-yl)-1,2,4-oxadiazol-3-yl]cyclobutyl}pyridin-3-yl)pyrimidin-2-amine] | 46 nM | 370 nM
32 | Cc1cc(-c2nc(C3(c4ccc(-c5cnc(N)nc5)cn4)CCC3)no2)[nH]n1 [Example 133, 5-(6-{1-[5-(3-methyl-1H-pyrazol-5-yl)-1,2,4-oxadiazol-3-yl]cyclobutyl}pyridin-3-yl)pyrimidin-2-amine] | 43 nM | 340 nM
